The target of test [1] is T1, AChE (Homo sapiens, UniProt P22303). In words: biochemical. The format is biochemical.
In test [2] the target is T1, AChE. It is filed as biochemical.
The next test addresses ChE (Homo sapiens, UniProt P06276). The format is biochemical.
For test [3] the following is noted: human, in vivo; cited from earlier work.

T1 sequence (P22303 32-614): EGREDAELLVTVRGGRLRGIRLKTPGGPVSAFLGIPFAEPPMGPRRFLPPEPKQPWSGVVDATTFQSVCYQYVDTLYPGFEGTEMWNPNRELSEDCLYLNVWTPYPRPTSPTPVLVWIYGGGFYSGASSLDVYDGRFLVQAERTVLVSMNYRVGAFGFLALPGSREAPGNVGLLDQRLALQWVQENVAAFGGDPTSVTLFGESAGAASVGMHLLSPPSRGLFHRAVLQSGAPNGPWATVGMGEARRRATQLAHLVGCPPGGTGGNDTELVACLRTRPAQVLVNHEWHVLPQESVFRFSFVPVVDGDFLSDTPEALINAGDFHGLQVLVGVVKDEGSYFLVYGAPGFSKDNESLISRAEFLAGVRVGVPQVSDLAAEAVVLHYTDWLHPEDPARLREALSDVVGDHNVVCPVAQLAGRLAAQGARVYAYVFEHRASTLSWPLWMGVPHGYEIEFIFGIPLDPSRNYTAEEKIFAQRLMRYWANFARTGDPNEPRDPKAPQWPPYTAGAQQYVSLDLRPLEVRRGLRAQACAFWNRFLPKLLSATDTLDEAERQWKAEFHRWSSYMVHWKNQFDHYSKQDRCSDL

Broadly, the remaining activity is what remains of the control signal, in per cent. The low end stands for little activity left, the high end for much activity left. Regarding `C=CC[N+](C)(C)c1ccc(CCC(=O)CCc2ccc([N+](C)(C)CC=C)cc2)cc1` [BW284C51, 1,5-bis-(4-allyldimethylammoniumphenyl)-pentan-3-one dibromide], on AChE [1], the AcThCho degraded stood at 3 ± 1 pmol/hr per ng mRNA and the remaining activity at 10 µM is 1 ± 0.3%. At AChE [2], the “sensitivity of tumor mRNA-induced AChE activity to selective inhibitor” value is “sensitive”.
Turning to `CC(C)NP(=O)(NC(C)C)OP(=O)(NC(C)C)NC(C)C` [iso-OMPA, tetraisopropylpyrophosphoramide], on AChE [1], the AcThCho degraded turned out to be 280 ± 10 pmol/hr per ng mRNA, the remaining activity at 10 µM came out at 98 ± 3% and the “sensitivity of oocyte-produced enzyme to inhibition (in words)” value was “totally insensitive”. Besides, the “sensitivity of tumor mRNA-induced ChE activity to selective inhibitor” value on ChE is listed as “sensitive”.

B1: BuChE from human serum: Purified BuChE from human serum (protein, UniProt P06276 29-602, looked up)
Cholinesterase: EDDIIIATKNGKVRGMNLTVFGGTVTAFLGIPYAQPPLGRLRFKKPQSLTKWSDIWNATKYANSCCQNIDQSFPGFHGSEMWNPNTDLSEDCLYLNVWIPAPKPKNATVLIWIYGGGFQTGTSSLHVYDGKFLARVERVIVVSMNYRVGALGFLALPGNPEAPGNMGLFDQQLALQWVQKNIAAFGGNPKSVTLFGESAGAASVSLHLLSPGSHSLFTRAILQSGSFNAPWAVTSLYEARNRTLNLAKLTGCSRENETEIIKCLRNKDPQEILLNEAFVVPYGTPLSVNFGPTVDGDFLTDMPDILLELGQFKKTQILVGVNKDEGTAFLVYGAPGFSKDNNSIITRKEFQEGLKIFFPGVSEFGKESILFHYTDWVDDQRPENYREALGDVVGDYNFICPALEFTKKFSEWGNNAFFYYFEHRSSKLPWPEWMGVMHGYEIEFVFGLPLERRDNYTKAEEILSRSIVKRWANFAKYGNPNETQNNSTSWPVFKSTEQKYLTLNTESTRIMTKLRAQQCRFWTSFFPKVLEMTGNIDEAEWEWKAGFHRWNNYMMDWKNQFNDYTSKKESCVGL
With B1, in test [3], the “effect on symptoms of OP-intoxicated patients” value is “improve the symptoms”.

The values are drawn from patent publication US5595903A (priority 1989, dated 1997).
